{
  "source": "patent US20250049741A1",
  "about": "“COMPOSITION FOR PREVENTING OR TREATING ALZHEIMER'S DISEASE COMPRISING PHOSPHOLIPASE C ACTIVATOR AS AN ACTIVE INGREDIENT” (Korea University Research and Business Foundation, priority 2021, published 2025)",
  "system": "CA1 PCs in rat hippocampal slices",
  "assay": "Ex vivo eCB / S-eCB mobilization protocol: eIPSC amplitudes by whole-cell voltage-clamp",
  "assay_type": "cell-based, Sprague-Dawley rats",
  "conditions": "m-3M3FBS 30 μM",
  "source_text": "To test the acute effect of AβO on hippocampal S-eCB mobilization, hippocampal slices from Sprague-Dawley rats (SD, 2 to 3 weeks old, DaeHan Biolink, Co., Ltd., Korea) were used. Male and female rats were used in all in vitro experiments. To test the chronic effect of AβO on hippocampus-dependent memory impairments caused by amyloidosis, the 5XFAD mouse model (6 to 7 months old, #34840-JAX, Jackson Laboratory, USA), which is a mouse model of Alzheimer's disease that mimics AβO depositions, was used. C57BL/6 mice (6 to 7 months old, KOATECH, Korea) were used as wild type (WT) control mice for 5XFAD mice. Male 5XFAD and C57BL/6 mice were used for all in vivo behavioral experiments. The 5XFAD mouse genotypes were identified by polymerase chain reaction (PCR) using DNA extracted from the tails of the mice. All animal-related procedures followed the guidelines of the Institutional Animal Care and Use Committee of Korea University (guidelines for SD rats: KUIACUC-2017-103, guidelines for C57BL/6 and 5XFAD mice: KUIACUC-2019-0068).\nSoluble AβO was prepared according to a previous study (BMC Biol. 2020; 18(1):7). Specifically, Aβ1-42 (Aβ) and a scrambled form of Aβ as a control peptide were purchased in powder form. Aβ and scrambled Aβ were dissolved for monomerization in 1,1,1,3,3,3-hexafluoro-2-propanol (HFIP, Sigma Aldrich, USA) at a final concentration of 1 mM, and the solution was incubated for 90 minutes. After the HFIP was evaporated, the remaining thin and clear film of Aβ or scrambled Aβ was dissolved in dimethyl sulfoxide (DMSO, Sigma Aldrich, USA) to prepare 5 mM Aβ or scrambled Aβ stocks, which were aliquoted and frozen at −20° C. Aβ or scrambled Aβ stocks were thawed and diluted to 100 μM in artificial cerebrospinal fluid (ACSF). Thereafter, Aβ or scrambled Aβ stocks were incubated for oligomerization for 18 hours. The final AβO or scrambled AβO stock solution was diluted to a final concentration of 200 nM in 31.2 ml of ACSF, and rat hippocampal slices were treated with the stock solution for 20 minutes in a recovery chamber before measurement of brain signals. In control experiments for normal brain conditions using a vehicle, rat hippocampal slices were treated with 0.004% DMSO in ACSF.\nThe brains of SD rats were isolated following decapitation under isoflurane-induced anesthesia and transferred into ice-cold ACSF containing 126 mM NaCl, […], 1.25 mM NaH2PO4, 2 mM MgSO4, 2 mM CaCl2), 25 mM NaHCO3, and 10 mM glucose (pH 7.2 to 7.4). The ACSF was continuously oxygenated with 95% O2/5% CO2. Horizontal hippocampal slices (350 μm thickness) were obtained using a vibratome (VT1000S, Leica Biosystems, Germany) and immediately incubated at room temperature in a submerged chamber perfused with oxygenated ACSF for at least 1 hour.\nTo quantify eCB mobilization, the changes in eCB mobilization-induced Schaffer collateral (SC) nerve bundle stimulation-evoked inhibitory postsynaptic current (eIPSC) amplitudes were measured in CA1 PCs through the whole-cell voltage-clamp technique. The whole-cell voltage-clamp technique in CA1 PCs was performed using a MultiClamp 700B amplifier (Molecular Devices, USA) under an infrared differential interference contrast video microscope (BW51W, Olympus, Japan), using a borosilicate electrode (tip resistance: 4 to 8 MΩ) that was filled with an intracellular solution containing 145 mM CsCl, 10 mM HEPES, 2 mM EGTA, 4 mM QX-314, 4 mM Mg-ATP, 0.4 mM […], pH 7.2 to 7.3, and 270 to 280 mOsm/L. To record eIPSCs in the CA1 PCs, a stimulating electrode (A-M Systems, USA) was placed in a stratum radiatum to stimulate the SC pathway that carries CA3 PC axons. Electrical stimulation pulses of 200 to 400 μA amplitudes (20 to 40 μs) were generated using a constant current stimulator (model DS3, Digitimer Ltd., UK). eIPSCs were recorded in CA PCs every 1 second while maintaining the membrane potential at −70 mV.",
  "data": [
    {"smiles": "Cc1cc(C)c(S(=O)(=O)Nc2cccc(C(F)(F)F)c2)c(C)c1", "note": "[m-3M3FBS]", "values": [
      {"measurement": "synergistic enhancement of the suppression of eIPSC amplitudes (S-eCB mobilization) in AβO-treated slices", "setting": "AβO-treated rat hippocampal slices", "result": "completely recovered"},
      {"measurement": "suppression of eIPSC amplitudes, recordings in DMSO-treated and scrambled AβO-treated slices", "setting": "DMSO-treated and scrambled AβO-treated rat hippocampal slices", "result": "not significantly different"}
    ]}
  ]
}
